Test results from PMC9484059, “Integrated multi-omics analysis and microbial recombinant protein system reveal hydroxylation and glycosylation involving nevadensin biosynthesis in Lysionotus pauciflorus” (Microbial Cell Factories, 2022).

Test system: T1, LpUGT95
T1 construct: cloned from cDNA into pMAL-c2x (MBP fusion vector), expressed in E. coli, purified recombinant
Assay: UPLC product formation, Hyper […] fit
Type: biochemical, Lysionotus pauciflorus
Settings: 2 mM UDP-glucose as sugar donor, 10 mM DTT, 50 mM Tris-HCl pH 7.4, 30 °C, 30 min

- Km: 596 µM
SMILES: COc1ccc(-c2cc(=O)c3c(O)c(OC)c(O)c(OC)c3o2)cc1 [nevadensin, 5,7-dihydroxy-6,8,4'-trimethoxyflavone]
